# According to patent EP1039902B1, “INHIBITORS OF GAP JUNCTION COMMUNICATION” (THE SCRIPPS RESEARCH INSTITUTE, priority 1997, dated 1999):
# Entries after “also recorded” stand apart in the source; their conditions may differ. Read-outs that look alike come from different tables or passages of the source.
# What was measured:
# [1] = tested on: rat glial cell gap junction; assay: Gap junction dye coupling assay (Lucifer yellow dye transfer; microinjection or scrape loading); assay type: cell-based; details: for potency of gap junction inhibition relative to oleamide: comparison in words; for reversibility of gap junction inhibition: removal of media containing the agent, replacement with fresh media
# Procedure: (§1) Rat glial cells (Suter et al., 1987) obtained from Dr. Trosko's laboratory were cultured in standard plastic tissue cultureware in Richter's Improved Minimal Essential Medium (Irvine Scientific, Santa Ana, CA), supplemented with 10% fetal calf serum and 50 µg/ml gentamicin sulfate, and incubated in a humidified atmosphere of 95% air/5% CO2 at 37°C. The cells were passaged by trypsinization and used at passages 4-8. BHK (baby hamster kidney) cells that were stably transfected with a β1 connexin cDNA (Kumar et al., 1995) were cultured in DMEM medium supplemented with 5% fetal calf serum and 50 µg/ml gentamicin sulfate, and incubated in a humidified atmosphere of 95% air/5% CO2 at 37° C. In order to induce β1 connexin expression in the BHK cells, 100 µM zinc acetate was added to culture medium for 8-18 hours when the cell culture was about 90% confluent.
# (§2) Gap junctional communication in glial cell and BHK/β1 cell cultures was assayed by microinjection of 5% Lucifer yellow CH dye in 0.1 M LiCl solution, and quantitated by determining the number of directly adjacent, neighboring cells that received dye (dye-coupling). Micropipettes were loaded with the dye solution by backfilling. Cells were visualized using a Nikon Diaphot inverted phase contrast/ epifluorescent microscope, and impaled with dye-filled micropipettes using an Eppendorf microinjector (model 5246). Five minutes after dye-injection, the transfer of dye to directly adjacent cells was determined using epifluorescent illumination. For each treatment condition, ten cells were microinjected in each of three dishes, the total number of dye-coupled neighboring cells was calculated and compared to determine the % dye-coupling. For scrape loading measurements, Lucifer yellow CH (0.05% dye in PBS) was loaded intracellularly by cutting or scraping cells in the monolayer with a sharp knife. The dye solution was left in the dish for 90 seconds, then the solution was discarded, and the dish subsequently washed with PBS. The cells were examined for dye transfer with an inverted epifluorescence microscope, and the degree of communication was assessed by determining the extent of Lucifer yellow transfer into contiguous cells.
# BHK/β1 cells = assay: Gap junction dye transfer between β1 connexin-transfected BHK cells; assay type: cell-based, baby hamster
# Procedure: as §1, §2
# rat glial cells [2] = assay: Gap junction electrical coupling assay (double whole cell patch recording); assay type: cell-based; details: concentration not given
# Procedure: Junctional conductance was measured using double whole cell patch recording performed on pairs of rat glial cells as described (Miller et al., (1992) J Mem. Biol. 128, 91-102) with a pipette solution of (in […]): Kaspartate 160, EGTA 10, CaCl2 2, HEPES 10 (pH 7.2), ATP 4. The external solution contained (in mM): NaCl 160, KCl 4.5, CaCl2 2, MgCl2 1, HEPES 10, pH 7.4. Both cells were held at -40 mV and pulses to -20 mV were alternately applied to each cell. Holding currents were subtracted in the records shown. Cells that were examined were generally in contact with other cells. The electrical conductance was calculated as the junctional current divided by 20 mV. All dye-coupling and conductance studies were performed at room temperature.
# rat glial cells [3] = assay: Calcium wave propagation (Fluo-3, mechanical stimulation); assay type: cell-based
# Procedure: Rat glial cells were loaded with 5 µM Fluo-3/AM (Calbiochem) in Hank's balanced salt solution containing 25 mM HEPES buffer (HBSS/HEPES) for 1 hour, at which point the loading buffer was exchanged for new HBSS/HEPES buffer. The cell cultures were then left at room temperature for at least 30 minutes. Mechanical stimulation of a single cell was performed as follows: a glass micropipette (tip diameter of approximately 0.5 µm) was micro-manipulated downward on to a single cell causing a transient deformation of the cell membrane. The calcium image was then examined with an inverted fluorescence microscope, and photographed with a digital fluorescence microscope (excitation = 506 nm, emmision = 526 nm). The degree of calcium wave propagation was quantitated by counting at different time points the number of transmitting cells in one linear direction away from the stimulated cell. Junctional dye transfer rates were simultaneously examined by microinjection of Lucifer yellow CH in the same dishes; the methods for dye transfer assay was described in assay procedures, gap junction dye coupling assays. For calcium wave and dye transfer studies, the drug was preincubated with the glial cells for 10 minutes, and the drug was left in the experimental solution throughout the examination. All measurements were performed at room temperature.
# astrocyte = details: cited from earlier work
# astrocyte calcium waves = details: mechanical stimulation or local glutamate application; cited from earlier work
# striatal astrocytes = details: cited from earlier work
# α1 connexin = assay: Immunoblotting of α1 connexin phosphorylation isoforms; assay type: cell-based, rat; details: 50 µM, 4 hours
# Procedure: Plasma membrane fractions containing gap junctions were obtained after hypotonic alkali extraction of the glial cells. The extracted protein was dissolved in 2% SDS and the total protein was determined using the Bio-Rad DC Protein Assay kit (Bio-Rad Corp.). 10 µg of protein was electrophoresed by 10% SDS-PAGE, and subsequently blotted electrophoretically on to Immobilon-P membranes (Millipore Corp.). Gap junction protein was detected using anti-α1 connexin polyclonal rabbit antibodies, and the HRP/Chemiluminescence detection kit (Amersham Corp.) following the manufacturer's instructions.
# rat cardiac myocytes = details: cited from earlier work
# [4] = molecular target: T1, fatty acid amide hydrolase (Rattus norvegicus, UniProt P97612); assay: Inhibition of fatty acid amide hydrolase; assay type: biochemical
# T1 sequence (P97612 1-579): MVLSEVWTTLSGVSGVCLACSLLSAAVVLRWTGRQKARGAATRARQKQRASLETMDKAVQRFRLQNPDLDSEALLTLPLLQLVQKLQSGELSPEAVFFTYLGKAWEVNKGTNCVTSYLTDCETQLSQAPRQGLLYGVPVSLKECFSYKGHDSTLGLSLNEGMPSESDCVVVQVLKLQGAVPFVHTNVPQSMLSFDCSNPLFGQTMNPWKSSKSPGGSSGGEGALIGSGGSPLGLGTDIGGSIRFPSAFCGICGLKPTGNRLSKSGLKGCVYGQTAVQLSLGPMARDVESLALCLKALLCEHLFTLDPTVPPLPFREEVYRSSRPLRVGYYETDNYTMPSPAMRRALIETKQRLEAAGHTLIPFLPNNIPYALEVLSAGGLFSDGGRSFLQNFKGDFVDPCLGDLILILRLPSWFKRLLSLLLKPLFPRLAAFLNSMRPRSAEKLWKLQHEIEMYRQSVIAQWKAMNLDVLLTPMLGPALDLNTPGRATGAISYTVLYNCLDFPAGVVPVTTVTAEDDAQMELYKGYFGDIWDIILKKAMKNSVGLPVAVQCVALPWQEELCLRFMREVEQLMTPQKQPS
# [5] = tested on: rat liver epithelial cells; details: cited from earlier work
# [6] = Induction of physiological sleep; assay type: in vivo; details: rats
# [7] = result in words, concentration not stated at the place
smiles,measurement,setting,value
"CCCCC/C=C\C/C=C\C/C=C\C/C=C\CCCC(=O)NCCO [anandamide, reference compound]",inhibition of gap junction-mediated dye transfer,[1]; 50 µM,effective inhibitors
same,potency of gap junction inhibition relative to oleamide,[1],blocked dye transfer at doses comparable to oleamide
same,inhibition of gap junction-mediated dye transfer,[1]; [7],selectively inhibiting gap junction communication
same,effect on dye transfer,BHK/β1 cells; concentration not given,inhibitory effects
same,electrical coupling,rat glial cells [2],selectively inhibiting gap junction communication
same,calcium wave transmission,rat glial cells [3]; concentration not given,without affecting calcium wave transmission
same,gap junction-mediated dye transfer,astrocyte,inhibit gap junction-mediated dye transfer
same,propagation of astrocyte calcium waves,astrocyte calcium waves,block the propagation of astrocyte calcium waves
"Cc1ccc(C(=O)Nc2ccc(S(=O)(=O)O)c3cc(S(=O)(=O)O)cc(S(=O)(=O)O)c23)cc1NC(=O)c1cccc(NC(=O)Nc2cccc(C(=O)Nc3cc(C(=O)Nc4ccc(S(=O)(=O)O)c5cc(S(=O)(=O)O)cc(S(=O)(=O)O)c45)ccc3C)c2)c1 [suramin, reference compound]",gap junction communication,[1]; 200 µM,without affecting gap junction communication
same,glial calcium wave transmission,rat glial cells [3]; 200 µM,blocked glial calcium wave transmission
"CCCCCCCO [heptanol, reference compound]",block of dye transfer,[1]; 3 mM,completely blocking
same,minimal effective concentration,"[1]; Rattus norvegicus, Glial cell, read-out: concentrations required to inhibit junctional communication",3000 µM
same,effect on dye transfer,BHK/β1 cells; concentration not given,inhibitory effects
same,calcium wave propagation,rat glial cells [3]; 3 mM,completely blocking
CCCCC/C=C\C/C=C\C/C=C\C/C=C\CCCC(=O)O [arachidonic acid],gap junction inhibition,striatal astrocytes,inhibit the gap junction
"CCCCCCCC/C=C\CCCCCCCC(=O)O [Oleic acid, reference compound]",inhibition of gap junction-mediated dye transfer,[1]; [7],inactive; also recorded: no effect
same,inhibition of gap junction-mediated dye transfer,"[1]; result in words, concentration not stated at the place, listed as oleic acid",no effect
same,effect on dye transfer,"BHK/β1 cells; 50 µM, 4 hours of treatment",no effect
same,effect on dye transfer,BHK/β1 cells; concentration not given,no effect
same,α1 connexin phosphorylation profile (P2 isoform),α1 connexin,No change
same,gap junction inhibition,rat cardiac myocytes,inhibit the gap junction
same,gap junction inhibition,rat cardiac myocytes; listed as oleic acid,inhibit gap junction communication
CCCCCCCC/C=C\CCCCCCCC(=O)C(F)(F)F [CF3],potency of gap junction inhibition relative to oleamide,[1],significantly more potent than oleamide
same,reversibility of gap junction inhibition,[1],reversible effect
same,Ki,[4],1 nM
CCCCCCCC/C=C/CCCCCCCC(N)=O [trans-9-octadecenamide],inhibition of gap junction-mediated dye transfer,"[1]; result in words, concentration not given, listed as 18:1^9-trans",no observable inhibition
same,inhibition of gap junction-mediated dye transfer,[1]; [7],ineffective; also recorded: no effect
same,effect on dye transfer,"BHK/β1 cells; 50 µM, 4 hours of treatment",no effect
same,effect on dye transfer,BHK/β1 cells; concentration not given,no effect
same,α1 connexin phosphorylation profile (P2 isoform),α1 connexin,No change
CC/C=C\C/C=C\C/C=C\CCCCCCCC(=O)O [α-linolenic acid],gap junction inhibition,[5],inhibit the gap junction
"CC1(C)[C@@H](O)CC[C@]2(C)[C@H]3C(=O)C=C4[C@@H]5C[C@@](C)(C(=O)O)CC[C@]5(C)CC[C@@]4(C)[C@]3(C)CC[C@@H]12 [18β-GA, 18β-glycyrrhetinic acid, reference compound]",block of dye transfer,[1]; 40 µM,completely blocking
same,potency of gap junction inhibition relative to oleamide,[1],blocked dye transfer at doses comparable to oleamide
same,effect on dye transfer,BHK/β1 cells; concentration not given,inhibitory effects
same,calcium wave propagation,"rat glial cells [3]; 40 µM, 10 minutes prior to mechanical stimulation",completely blocking; also recorded: did not propagate to any other cells
"CCCCCCCC/C=C\CCCCCCCCCCCC(N)=O [erucamide, Erucamide]",inhibition of gap junction-mediated dye transfer,[1]; [7],not an inhibitor
same,induction of physiological sleep,[6],does not induce physiological sleep
CCCCC/C=C\C/C=C\C/C=C\CCCCC(N)=O [γ-linolenamide],inhibition of gap junction-mediated dye transfer,[1]; [7],effective but less potent inhibitor
CCCCCCCC/C=C\CCCCCCCC(=O)NCCO [oleyl ethanolamide],inhibition of gap junction-mediated dye transfer,[1]; 50 µM,effective inhibitors
same,inhibition of gap junction-mediated dye transfer,"[1]; 50 µM, listed as Oleyl ethanolamide",significant inhibitors
same,potency of gap junction inhibition relative to oleamide,[1],less potent than oleamide
same,potency of gap junction inhibition relative to oleamide,[1]; listed as Oleyl ethanolamide,less potent than oleamide at lower doses
same,gap junction-mediated dye transfer,astrocyte,inhibit gap junction-mediated dye transfer
same,propagation of astrocyte calcium waves,astrocyte calcium waves,block the propagation of astrocyte calcium waves
"CCCCCC/C=C\CCCCCCCC(N)=O [palmitoleamide, Palmitoleamide]",inhibition of gap junction-mediated dye transfer,[1]; [7],potent activity
NC(=O)CCCCCCC/C=C\CCCCCCCC(N)=O [symmetrical 18:1^9 dicarboxamide],inhibition of gap junction-mediated dye transfer,[1]; 50 µM,no gap junction inhibition
CCCCC/C=C\C/C=C\C/C=C\C/C=C\CCCC(N)=O [arachidonamide],potency of gap junction inhibition relative to oleamide,[1],not quite as potent as oleamide
same,inhibition of gap junction-mediated dye transfer,[1]; [7],effective inhibitor
CCCCCCCC/C=C\CCCCCCC(SC(C)=O)C(N)=O (stereo not drawn) [α-acetylthiooleamide],inhibition of gap junction-mediated dye transfer,[1]; [7],effective inhibitors
CCCCCCCC/C=C\CCCCCCCC(=O)CCl [ClCH2],inhibition of gap junction-mediated dye transfer,[1]; [7],substantially less effective
CCCCCCCC/C=C\CCCCCCCC=O [oleyl aldehyde],potency of gap junction inhibition relative to oleamide,[1],nearly equipotent with oleamide
same,reversibility of gap junction inhibition,[1],reversible effect
same,inhibition of gap junction-mediated dye transfer,[1]; [7],surprisingly effective
same,Ki,[4],190 nM
CCCCCCCC/C=C\CCCCCCCC(=O)N(C)OC [MeONMe],inhibition of gap junction-mediated dye transfer,[1]; [7],most potent of the agents examined
CCCCCCCC/C=C\CCCCCCC(S)C(N)=O (stereo not drawn) [CHSH],inhibition of gap junction-mediated dye transfer,[1]; [7],ineffective
"CCCCCCCC/C=C\CCCCCCCCO [oleyl alcohol, Oleyl alcohol]",inhibition of gap junction-mediated dye transfer,[1]; [7],progressively reduced effectiveness
